Measured values: article PMC6628648, “Enabling microbial syringol conversion through structure-guided protein engineering” (Proceedings of the National Academy of Sciences of the …, 2019)

Key:
Assay in all cases: In vivo syringol conversion in shake flasks, 1H NMR of culture medium
Format in all cases: cell-based
[1] = test system: Pseudomonas putida KT2440 strain AM155 lacking GcoAB; conditions: AM155 (does not express GcoA), 1 mM syringol
Protocol: (§1) A standard for 2-pyrone 6-carboxylate was not available; however, we did verify the presence of 2-pyrone 6-carboxylate using LC-MS-MS (SI Appendix, Fig. S15). While small amounts of pyrogallol, 3MC, and 2-pyrone 6-carboxylate were also observed with the WT GcoAB (AM156), nearly 60% of the original syringol remained after 6 h.
(§2) Strains used for shake flask experiments were grown overnight in LB media and resuspended the next day in M9 minimal media with 20 mM glucose, as described in SI Appendix. Cells were grown until they reached an OD600 of approximately 1, at which point syringol was added at a final concentration of 1 mM. ^1H NMR spectroscopy was used to analyze syringol consumption.
(§3) 572 nm was recorded by a Varioskan Lux microplate reader (Thermo Scientific). The absorbance was compared to a standard curve with 0-100 μM H2O2 to quantify the amount of peroxide produced in the reactions.
(§4) Purified protein was buffer exchanged into 10 mM HEPES pH 7.5 and concentrated to an A280 value of 12, as measured on a NanoDrop 2000 spectrophotometer (Thermo Fisher). Crystals of GcoA were grown with 2.4 M sodium malonate and 200 mM substrate, dissolved in 40% DMSO where necessary. Crystals were cryocooled directly in liquid N2 without further addition of cryoprotectants. […]
(§5) Strains evaluated in shake flask experiments were initially grown overnight in LB media with appropriate antibiotics from glycerol stocks and resuspended the following day in M9 minimal media (6.78 g/L Na2HPO4, 3 g/L KH2PO4, 0.5 g/L NaCl, 1 g/L NH4Cl, 2 mM MgSO4, 100 µM CaCl2, and 40 µM FeSO4 . 7H2O) supplemented with 20 mM glucose (Sigma-Aldrich) and […] kanamycin.
(§6) Cells were grown until they reached an OD600 of 1, at which point syringol (Sigma-Aldrich) was added to a final concentration of 1 mM. Syringol concentrations were quantified using any 1H NMR, and spectra were collected using a Bruker Avance III HD 400 MHz Spectrometer and analyzed using Bruker TopSpin3.7 software. For identification of unknown compounds, samples were analyzed via LC-MS-MS using the Acquity UPLC system (Waters Inc.). […]

[2] = test system: Pseudomonas putida KT2440 strain AM156 expressing WT GcoAB; conditions: 20 mM glucose, 1 mM syringol
Protocol: as §1, §2, §3, §4, §5, §6

[3] = test system: Pseudomonas putida KT2440 strain AM157 expressing GcoA-F169A and GcoB; conditions: 20 mM glucose, 1 mM syringol
Protocol: as §1, §2, §3, §4, §5, §6

COc1cccc(OC)c1O [syringol, 2,6-dimethoxyphenol]
syringol conversion after 6 h [1]: no conversion | original syringol remaining after 6 h [2]: ~60% | syringol 1H NMR peaks in culture medium after 6 h [3]: completely disappeared
